Test results as given in ChEMBL document CHEMBL1123417, “New structure-activity relationships of the quinolone antibacterials using the target enzyme. The development and application of a DNA gyrase assay” (J Med Chem, 1986).
Values after ≈ are worked out from the molar mass of the structure shown.

Legend:
Escherichia coli [1] = test: Antibacterial activity against Escherichia coli (vogel)
[2] = molecular target: DNA gyrase (Escherichia coli) (UniProt P0AES6+P0AES4)
Pseudomonas aeruginosa = test: Antibacterial activity against Pseudomonas aeruginosa (UI-18)
Streptococcus pneumoniae = test: Antibacterial activity against Streptococcus pneumoniae (SV-1)
Staphylococcus aureus = test: Antibacterial activity against Staphylococcus aureus (H228)
Escherichia coli [3] = test: Antibacterial activity against Escherichia coli (H560)
Klebsiella pneumoniae = test: Antibacterial activity against Klebsiella pneumonia (MGH-2)

## CCn1cc(C(=O)O)c(=O)c2cc(F)c(C)cc21
Escherichia coli [1]
  MIC: 0.2 µg/mL (≈ 0.802 µM)
[2]
  gyrase cleavage conc: 25 µg/mL
Pseudomonas aeruginosa
  MIC: 12.5 µg/mL (≈ 50.2 µM)
Streptococcus pneumoniae
  MIC: 100 µg/mL (≈ 401 µM)
Staphylococcus aureus
  MIC: 1.6 µg/mL (≈ 6.42 µM)
Escherichia coli [3]
  MIC: 0.4 µg/mL (≈ 1.6 µM)
Klebsiella pneumoniae
  MIC: 0.2 µg/mL (≈ 0.802 µM)

## CCOC(=O)N1CCN(c2nc3c(cc2F)c(=O)c(C(=O)O)cn3CC)CC1
Escherichia coli [1]
  MIC: 25 µg/mL (≈ 63.7 µM)
[2]
  gyrase cleavage conc: 18 µg/mL
Pseudomonas aeruginosa
  MIC: 200 µg/mL (≈ 510 µM)
Streptococcus pneumoniae
  MIC: 100 µg/mL (≈ 255 µM)
Staphylococcus aureus
  MIC: 3.1 µg/mL (≈ 7.9 µM)
Escherichia coli [3]
  MIC: 50 µg/mL (≈ 127 µM)
Klebsiella pneumoniae
  MIC: 50 µg/mL (≈ 127 µM)

## CCn1cc(C(=O)O)c(=O)c2ccc(/C=C/N3CCN(C)CC3)nc21
Escherichia coli [1]
  MIC: > 100 µg/mL
[2]
  gyrase cleavage conc: > 100 µg/mL
Pseudomonas aeruginosa
  MIC: > 100 µg/mL
Streptococcus pneumoniae
  MIC: > 100 µg/mL
Staphylococcus aureus
  MIC: > 100 µg/mL
Escherichia coli [3]
  MIC: > 100 µg/mL
Klebsiella pneumoniae
  MIC: > 100 µg/mL

## CCn1cc(C(=O)O)c(=O)c2cc(F)c(N3CCSCC3)nc21
Escherichia coli [1]
  MIC: 1.6 µg/mL (≈ 4.74 µM)
[2]
  gyrase cleavage conc: 18 µg/mL
Pseudomonas aeruginosa
  MIC: 6.3 µg/mL (≈ 18.7 µM)
Streptococcus pneumoniae
  MIC: 50 µg/mL (≈ 148 µM)
Staphylococcus aureus
  MIC: 0.2 µg/mL (≈ 0.593 µM)
Escherichia coli [3]
  MIC: 1.6 µg/mL (≈ 4.74 µM)
Klebsiella pneumoniae
  MIC: 3.1 µg/mL (≈ 9.19 µM)

## CCn1cc(C(=O)O)c(=O)c2ccc(N3CCNCC3)cc21
Escherichia coli [1]
  MIC: 6.3 µg/mL (≈ 20.9 µM)
[2]
  gyrase cleavage conc: 18 µg/mL
Pseudomonas aeruginosa
  MIC: 25 µg/mL (≈ 83 µM)
Streptococcus pneumoniae
  MIC: 50 µg/mL (≈ 166 µM)
Staphylococcus aureus
  MIC: > 50 µg/mL
Escherichia coli [3]
  MIC: 6.3 µg/mL (≈ 20.9 µM)
Klebsiella pneumoniae
  MIC: 6.3 µg/mL (≈ 20.9 µM)

## CCn1cc(C(=O)O)c(=O)c2cc(F)c(N3CCN(C)CC3)c(F)c21
Escherichia coli [1]
  MIC: 0.2 µg/mL (≈ 0.569 µM)
[2]
  gyrase cleavage conc: 2.5 µg/mL
Pseudomonas aeruginosa
  MIC: 0.8 µg/mL (≈ 2.28 µM)
Streptococcus pneumoniae
  MIC: 3.1 µg/mL (≈ 8.82 µM)
Staphylococcus aureus
  MIC: 0.4 µg/mL (≈ 1.14 µM)
Escherichia coli [3]
  MIC: 0.1 µg/mL (≈ 0.285 µM)
Klebsiella pneumoniae
  MIC: 0.4 µg/mL (≈ 1.14 µM)

## CCn1cc(C(=O)O)c(=O)c2ccc(/C=N/O)nc21
Escherichia coli [1]
  MIC: 12.5 µg/mL (≈ 47.8 µM)
[2]
  gyrase cleavage conc: 100 µg/mL
Pseudomonas aeruginosa
  MIC: 100 µg/mL (≈ 383 µM)
Streptococcus pneumoniae
  MIC: 100 µg/mL (≈ 383 µM)
Staphylococcus aureus
  MIC: 50 µg/mL (≈ 191 µM)
Escherichia coli [3]
  MIC: > 100 µg/mL
Klebsiella pneumoniae
  MIC: 12.5 µg/mL (≈ 47.8 µM)

## CCn1cc(C(=O)O)c(=O)c2cc(F)c(/C=N/O)nc21
Escherichia coli [1]
  MIC: 6.3 µg/mL (≈ 22.6 µM)
[2]
  gyrase cleavage conc: 50 µg/mL
Pseudomonas aeruginosa
  MIC: 100 µg/mL (≈ 358 µM)
Streptococcus pneumoniae
  MIC: 100 µg/mL (≈ 358 µM)
Staphylococcus aureus
  MIC: 100 µg/mL (≈ 358 µM)
Escherichia coli [3]
  MIC: > 100 µg/mL
Klebsiella pneumoniae
  MIC: 12.5 µg/mL (≈ 44.8 µM)

## CCn1cc(C(=O)O)c(=O)c2cc(F)c(N3CCN(C(C)=N)CC3)nc21
Escherichia coli [1]
  MIC: 3.1 µg/mL (≈ 8.58 µM)
[2]
  gyrase cleavage conc: 6.3 µg/mL
Pseudomonas aeruginosa
  MIC: 25 µg/mL (≈ 69.2 µM)
Streptococcus pneumoniae
  MIC: 50 µg/mL (≈ 138 µM)
Staphylococcus aureus
  MIC: 50 µg/mL (≈ 138 µM)
Escherichia coli [3]
  MIC: 0.8 µg/mL (≈ 2.21 µM)
Klebsiella pneumoniae
  MIC: 6.3 µg/mL (≈ 17.4 µM)

## CCn1cc(C(=O)O)c(=O)cc1/C=C/c1ccsc1
Escherichia coli [1]
  MIC: 25 µg/mL (≈ 90.8 µM)
[2]
  gyrase cleavage conc: 100 µg/mL
Pseudomonas aeruginosa
  MIC: > 100 µg/mL
Streptococcus pneumoniae
  MIC: > 100 µg/mL
Staphylococcus aureus
  MIC: > 100 µg/mL
Escherichia coli [3]
  MIC: 50 µg/mL (≈ 182 µM)
Klebsiella pneumoniae
  MIC: > 100 µg/mL

## CCn1cc(C(=O)O)c(=O)c2cc(F)c(N3CCN(CCN)CC3)nc21
Escherichia coli [1]
  MIC: 12.5 µg/mL (≈ 34.4 µM)
[2]
  gyrase cleavage conc: 6.3 µg/mL
Pseudomonas aeruginosa
  MIC: 50 µg/mL (≈ 138 µM)
Streptococcus pneumoniae
  MIC: 12.5 µg/mL (≈ 34.4 µM)
Staphylococcus aureus
  MIC: 50 µg/mL (≈ 138 µM)
Escherichia coli [3]
  MIC: 12.5 µg/mL (≈ 34.4 µM)
Klebsiella pneumoniae
  MIC: 25 µg/mL (≈ 68.8 µM)

## CCn1cc(C(=O)O)c(=O)c2cc(F)c(N3CCN(CC#N)CC3)cc21
Escherichia coli [1]
  MIC: 0.4 µg/mL (≈ 1.12 µM)
[2]
  gyrase cleavage conc: 10 µg/mL
Pseudomonas aeruginosa
  MIC: 6.3 µg/mL (≈ 17.6 µM)
Streptococcus pneumoniae
  MIC: 6.3 µg/mL (≈ 17.6 µM)
Staphylococcus aureus
  MIC: 1.6 µg/mL (≈ 4.46 µM)
Escherichia coli [3]
  MIC: 0.8 µg/mL (≈ 2.23 µM)
Klebsiella pneumoniae
  MIC: 0.8 µg/mL (≈ 2.23 µM)

## CCn1cc(C(=O)O)c(=O)c2ccc(C)nc21
[2]
  gyrase cleavage conc: 50 µg/mL

## CCn1cc(C(=O)O)c(=O)c2cc(F)c(F)c(F)c21
Escherichia coli [1]
  MIC: 1.6 µg/mL (≈ 5.9 µM)
[2]
  gyrase cleavage conc: 38 µg/mL
Pseudomonas aeruginosa
  MIC: > 100 µg/mL
Streptococcus pneumoniae
  MIC: > 100 µg/mL
Staphylococcus aureus
  MIC: 50 µg/mL (≈ 184 µM)
Escherichia coli [3]
  MIC: 6.3 µg/mL (≈ 23.2 µM)
Klebsiella pneumoniae
  MIC: 6.3 µg/mL (≈ 23.2 µM)

## CCn1cc(C(=O)O)c(=O)c2cc(F)c(/C=N/N3CCN(C)CC3)nc21
Escherichia coli [1]
  MIC: 25 µg/mL (≈ 69.2 µM)
[2]
  gyrase cleavage conc: 100 µg/mL
Pseudomonas aeruginosa
  MIC: > 100 µg/mL
Streptococcus pneumoniae
  MIC: 100 µg/mL (≈ 277 µM)
Staphylococcus aureus
  MIC: 25 µg/mL (≈ 69.2 µM)
Escherichia coli [3]
  MIC: 50 µg/mL (≈ 138 µM)
Klebsiella pneumoniae
  MIC: 25 µg/mL (≈ 69.2 µM)

## CCn1cc(C(=O)O)c(=O)c2cc(F)c(N3CCN(C(C)=N)CC3)cc21
Escherichia coli [1]
  MIC: 0.8 µg/mL (≈ 2.22 µM)
[2]
  gyrase cleavage conc: 2.5 µg/mL
Pseudomonas aeruginosa
  MIC: 1.6 µg/mL (≈ 4.44 µM)
Streptococcus pneumoniae
  MIC: 12.5 µg/mL (≈ 34.7 µM)
Staphylococcus aureus
  MIC: 6.3 µg/mL (≈ 17.5 µM)
Escherichia coli [3]
  MIC: 0.2 µg/mL (≈ 0.555 µM)
Klebsiella pneumoniae
  MIC: 1.6 µg/mL (≈ 4.44 µM)

## CCn1cc(C(=O)O)c(=O)c2c(N)nc(N3CCNCC3)nc21
Escherichia coli [1]
  MIC: 6.3 µg/mL (≈ 19.8 µM)
[2]
  gyrase cleavage conc: 100 µg/mL
Pseudomonas aeruginosa
  MIC: 25 µg/mL (≈ 78.5 µM)
Streptococcus pneumoniae
  MIC: 50 µg/mL (≈ 157 µM)
Staphylococcus aureus
  MIC: 50 µg/mL (≈ 157 µM)
Escherichia coli [3]
  MIC: 3.1 µg/mL (≈ 9.74 µM)
Klebsiella pneumoniae
  MIC: 25 µg/mL (≈ 78.5 µM)

## CCn1cc(C(=O)O)c(=O)c2cc(F)c(N3CCC(C(N)=O)CC3)cc21
Escherichia coli [1]
  MIC: 6.3 µg/mL (≈ 17.4 µM)
[2]
  gyrase cleavage conc: 7.5 µg/mL
Pseudomonas aeruginosa
  MIC: 50 µg/mL (≈ 138 µM)
Streptococcus pneumoniae
  MIC: 6.3 µg/mL (≈ 17.4 µM)
Staphylococcus aureus
  MIC: 3.1 µg/mL (≈ 8.58 µM)
Escherichia coli [3]
  MIC: 25 µg/mL (≈ 69.2 µM)
Klebsiella pneumoniae
  MIC: 25 µg/mL (≈ 69.2 µM)

## CCn1cc(C(=O)O)c(=O)c2ccc(N3CCNCC3)nc21
Escherichia coli [1]
  MIC: 6.3 µg/mL (≈ 20.8 µM)
[2]
  gyrase cleavage conc: 75 µg/mL
Pseudomonas aeruginosa
  MIC: 12.5 µg/mL (≈ 41.3 µM)
Streptococcus pneumoniae
  MIC: 50 µg/mL (≈ 165 µM)
Staphylococcus aureus
  MIC: 50 µg/mL (≈ 165 µM)
Escherichia coli [3]
  MIC: 3.1 µg/mL (≈ 10.3 µM)
Klebsiella pneumoniae
  MIC: 12.5 µg/mL (≈ 41.3 µM)

## CC1COc2c(N3CCN(C)CC3)c(F)cc3c(=O)c(C(=O)O)cn1c23 (stereo not given)
[2]
  gyrase cleavage conc: 5 µg/mL

## CCn1cc(C(=O)O)c(=O)c2cc(N)c(C)nc21
Escherichia coli [1]
  MIC: > 100 µg/mL
[2]
  gyrase cleavage conc: > 100 µg/mL
Pseudomonas aeruginosa
  MIC: > 100 µg/mL
Streptococcus pneumoniae
  MIC: 50 µg/mL (≈ 202 µM)
Staphylococcus aureus
  MIC: 50 µg/mL (≈ 202 µM)
Escherichia coli [3]
  MIC: 100 µg/mL (≈ 404 µM)
Klebsiella pneumoniae
  MIC: > 100 µg/mL
